Reference: patent US12036236B2, “Antimicrobial guanidinium macromolecules with bacteria targeting moieties” (International Business Machines Corporation, priority 2018, dated 2024)

What was measured:
[1] = test system: A. baumannii 4123; test: Effective dose (ED50, ED95) in bacteremia infection mouse model; assay type: in vivo; settings: Acinetobacter baumannii, 4123, ip; immunosuppressed mice, intraperitoneal 1.0 and 6.0 hours after infection, survival 7.0 days, BLISS method; read-out: ED50 (effective dose that cures 50% infected mice)
Description: In this regard, immunosuppressed mice were used for the following in vivo studies. Immunosuppression was induced by intraperitoneal injection of 200 mg/kg cyclophosphamide 4 days prior to infection. The mice were anesthetized by intraperitoneal injection of 1% pentobarbital (40 mg/kg, sigma). The mice were then infected with A. baumannii 4123 to determine the minimum lethal dose for subsequent effective dose and efficacy testing. Briefly, overnight cultures of A. baumannii 4123 were harvested and suspended in phosphate-buffered saline (PBS). Subsequently, the cyclophosphamide-pretreated mice were injected with 0.3 mL of the bacterial suspension at designated doses (e.g., 1.0×10^8, 2.5×10^8, 5×10^8, 1.0×10^9, 2.0×10^9 CFU/mL, six mice per group) via the tail vein. The minimum lethal dose, the lowest concentration sufficient to cause 100% mortality, was determined from the survival rate of mice at 48 hours post-infection by the BLISS method.
Firstly, a bacterial suspension with the minimum lethal dose (0.3 mL) was introduced to the above described cyclophosphamide-pretreated mice via the tail vein. […] The number of surviving mice in each group was recorded for 7.0 days to estimate ED50 and ED95 via the BLISS method.

[2] = test system: clinically isolated MDR K. pneumoniae, E. coli, A. baumannii and MRSA strains; test: MIC by broth microdilution against different types and strains of clinically isolated MDR bacteria; assay type: cell-based; settings: MIC comparison
Description: To facilitate comparison, an antimicrobial guanidinium-based macromolecule without a sugar functional group (identified herein as Dp20), as well as strong antibiotics (including imipenem, vancomycin, ceftriaxone, and gentamycin), were also tested against the clinically isolated pathogens. The MDR clinical isolates were obtained from patients' blood and phlegm. All isolates were identified by routine laboratory methods and stored in 20% (v/v) glycerol at 80° C.
In accordance with the broth microdilution method, MDR microbes including one or more strains of K. pneumoniae, E. coli, A. baumannii, and MRSA were harvested in midexponential growth phase after grown overnight in Mueller-Hinton (MH) agar plates at 37° C. The antimicrobial agents were prepared in Mueller Hinton broth (MHB) at various concentrations. The bacteria suspensions were then diluted with phosphate-buffer saline (PBS), with a potential of Hydrogen (PH) of 7.4) to adjust the turbidity approximately to the Standard McFarland 0.6, which corresponds to the concentration of 1×10^8 colony-forming unit (CFU) per mL (CFU/mL, after which the bacteria suspension was further diluted by 100-fold with MHB (1×10^6 CFU/mL). Subsequently, equal volumes (100 μL) of bacterial suspension and agent solution prepared previously were mixed in each well of a 96-well plate and incubated for 18 hours at 37° C. […]

Compound | ED50 [1] | spectrum of efficacy (Gram-negative / Gram-positive strains) [2]
C[C@@H](O)[C@H]1C(=O)N2C(C(=O)O)=C(SCCN=CN)C[C@H]12 [imipenem] | 6.1 mg/kg | –
CN[C@H](CC(C)C)C(=O)N[C@H]1C(=O)N[C@@H](CC(N)=O)C(=O)N[C@H]2C(=O)N[C@H]3C(=O)N[C@H](C(=O)N[C@H](C(=O)O)c4cc(O)cc(O)c4-c4cc3ccc4O)[C@H](O)c3ccc(c(Cl)c3)Oc3cc2cc(c3O[C@@H]2O[C@H](CO)[C@@H](O)[C@H](O)[C@H]2O[C@H]2C[C@](C)(N)[C@H](O)[C@H](C)O2)Oc2ccc(cc2Cl)[C@H]1O [vancomycin] | – | only demonstrated efficacy Gram-positive strains
